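Five concentrations, 48 hours, 96-well plates. The concentration for 50% growth inhibition is given as GI50. TGI denotes the concentration required for complete inhibition of growth.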
Legend:
Test in all cases: NCI anticancer screen, dose series, 48 h
CAKI-1 renal = test system: CAKI-1 renal
SK-MEL-5 melanoma = test system: SK-MEL-5 melanoma
BT-549 breast = test system: BT-549 breast
SNB-75 CNS = test system: SNB-75 CNS
CCRF-CEM leukemia = test system: CCRF-CEM leukemia
LOX IMVI melanoma = test system: LOX IMVI melanoma
786-0 renal = test system: 786-0 renal
RXF 393 renal = test system: RXF 393 renal
KM12 colon = test system: KM12 colon
HCC-2998 colon = test system: HCC-2998 colon
A498 renal = test system: A498 renal
NCI-H23 lung = test system: NCI-H23 lung
M14 melanoma = test system: M14 melanoma
HOP-92 NSCLC = test system: HOP-92 NSCLC
MDA-MB-435 = test system: MDA-MB-435
HCT-116 colon = test system: HCT-116 colon
T-47D breast = test system: T-47D breast
SF-539 CNS = test system: SF-539 CNS
NCI/ADR-RES ovarian = test system: NCI/ADR-RES ovarian
SN12C renal = test system: SN12C renal
IGROV1 ovarian = test system: IGROV1 ovarian
SF-268 CNS = test system: SF-268 CNS
ACHN renal = test system: ACHN renal
HCT-15 colon = test system: HCT-15 colon
OVCAR-8 ovarian = test system: OVCAR-8 ovarian
OVCAR-4 ovarian = test system: OVCAR-4 ovarian
MDA-MB-231 breast = test system: MDA-MB-231 breast
RPMI-8226 leukemia = test system: RPMI-8226 leukemia

CNC(=O)c1cc(-n2ccc3cc(NC(=O)Nc4ccc(N5CCN(C)CC5)c(C(F)(F)F)c4)ccc32)ccn1 gave a GI50 (CAKI-1 renal) of 4.15 µM, a TGI (CAKI-1 renal) of 8.3 µM and a GI50 (SK-MEL-5 melanoma) of 4.28 µM. The TGI (SK-MEL-5 melanoma) was 7.79 µM, the GI50 (BT-549 breast) was 2.7 µM and the TGI (BT-549 breast) was 5.75 µM. It also gave a GI50 (SNB-75 CNS) of 1.2 µM, a TGI (SNB-75 CNS) of 4.98 µM and a GI50 (CCRF-CEM leukemia) of 2.54 µM. It also gave a TGI (CCRF-CEM leukemia) of 16 µM, a GI50 (LOX IMVI melanoma) of 2.68 µM and a TGI (LOX IMVI melanoma) of 5.95 µM. It also gave a GI50 (786-0 renal) of 2.03 µM, a TGI (786-0 renal) of 5.31 µM and a GI50 (RXF 393 renal) of 0.633 µM. For the same compound, the TGI (RXF 393 renal) was 1.75 µM, the GI50 (KM12 colon) was 0.866 µM and the TGI (KM12 colon) was 3.88 µM. The GI50 (HCC-2998 colon) was 3.53 µM, the TGI (HCC-2998 colon) was 7.05 µM and the GI50 (A498 renal) was 3.61 µM. The TGI (A498 renal) was 7.07 µM, the GI50 (NCI-H23 lung) was 3.87 µM and the TGI (NCI-H23 lung) was 8.32 µM. The GI50 (M14 melanoma) was 2.95 µM, the TGI (M14 melanoma) was 6.09 µM and the GI50 (HOP-92 NSCLC) was 1.22 µM. It also gave a TGI (HOP-92 NSCLC) of 4.68 µM, a GI50 (MDA-MB-435) of 3.67 µM and a TGI (MDA-MB-435) of 7.17 µM. It also gave a GI50 (HCT-116 colon) of 1.7 µM, a TGI (HCT-116 colon) of 4.87 µM and a GI50 (T-47D breast) of 3.65 µM. For the same compound, the TGI (T-47D breast) was 9.08 µM, the GI50 (SF-539 CNS) was 1.2 µM and the TGI (SF-539 CNS) was 4.53 µM. The GI50 (NCI/ADR-RES ovarian) was 5.3 µM, the TGI (NCI/ADR-RES ovarian) was 13.7 µM and the GI50 (SN12C renal) was 3.53 µM. For the same compound, the TGI (SN12C renal) was 7.56 µM, the GI50 (IGROV1 ovarian) was 4.12 µM and the TGI (IGROV1 ovarian) was 8.44 µM. For the same compound, the GI50 (SF-268 CNS) was 3.3 µM, the TGI (SF-268 CNS) was 7.43 µM and the GI50 (ACHN renal) was 3.85 µM. It also gave a TGI (ACHN renal) of 7.22 µM, a GI50 (HCT-15 colon) of 0.796 µM and a TGI (HCT-15 colon) of 3.48 µM. It also gave a GI50 (OVCAR-8 ovarian) of 4.27 µM, a TGI (OVCAR-8 ovarian) of 8.27 µM and a GI50 (OVCAR-4 ovarian) of 3.65 µM. For the same compound, the TGI (OVCAR-4 ovarian) was 8.62 µM, the GI50 (MDA-MB-231 breast) was 3.48 µM and the TGI (MDA-MB-231 breast) was 7.81 µM. The GI50 (RPMI-8226 leukemia) was 0.886 µM and the TGI (RPMI-8226 leukemia) was 4.01 µM.

Reference: PubChem BioAssay (NCI)
